Ends that are not written are not given here. * marks the point of attachment. code + = amino-terminal bromo-group; nBu = CCCC*

The subject of the experiment is anti-hTNF mAb 210. The experiment in a line: Loop-loop 15-mer Matrix-scan of hTNF loop-peptides with mAb 210. It is filed as binding. The following applies: mAb 210 10 ug/ml. An excerpt:
FIG. 11: Partial listing of peptides synthesized for loop-loop 15-mer Matrix-scan (1. +AVRSSSRTPSDKPVZ (SEQ ID NO: 3); 2. +VRSSSRTPSDKPVAZ (SEQ ID NO: 4); 3. +RSSSRTPSDKPVAHZ (SEQ ID NO: 5); 4. +SSSRTPSDKPVAHVZ (SEQ ID NO: 6); 5. +SSRTPSDKPVAHVVZ (SEQ ID NO: 7); 145. +FAESGQVYFGIIALZ (SEQ ID NO: 8)). All overlapping 15-mer loop-peptides covering the linear sequence of human tumor necrosis factor (hTNF) were synthesized, i.e., 145 hTNF loop-peptides in total. Z is a Cys-butyl. The amino terminus of all peptides contain a bromo-group (+).
FIG. 12: Configuration of the loop-loop 15-mer Matrix-scan. Schematic representation of matrix-scan with two loop segments. On the polymer surface, a mixture of cys (mmt) and cys (trt) are coupled. After 1% TFA, the cys (mmt) is deprotected. Then, in each square, one peptide is coupled via its N-terminal Bromo-group (+). Thus, peptide-1 in square-1, peptide-2 in square-2, etc., until peptide-145 in square-145. Then, the cys(trt) is deprotected with 95% TFA. Then, in each square, 145 different peptides are spotted simultaneously. Thus, peptide-1 to 145 in square-1, peptide 1-145 in square-2, etc., to peptide-1 to peptide-145 in square-145. Some extra squares were used for controls (linear epitopes).
FIG. 13: Result of the loop-loop 15-mer Matrix-scan with anti-hTNF mAb 210 (10 ug/ml). The result obtained with all 145 squares is plotted. […] On top of these and other squares spots are labeled as well (spots represent first peptide coupled next to second loop peptide). Identified squares and spots: Sq-65: +FKGQGCPSTHVLLTZ (SEQ ID NO: 9); Sq-66: +KGQGCPSTHVLLTHZ (SEQ ID NO: 10); Sq-67: +GQGCPSTHVLLTHTZ (SEQ ID NO: 11); Sq-87: +SYQTKVNLLSAIKSZ (SEQ ID NO: 12); Sq-88: +YQTKVNLLSAIKSPZ (SEQ ID NO: 13); Sq-94: +LLSAIKSPCQRETPZ (SEQ ID NO: 14); Sq-95: +LSAIKSPCQRETPEZ (SEQ ID NO: 15); Sq-127: +LEKGDRLSAEINRPZ (SEQ ID NO: 16); Sq-128: +EKGDRLSAEINRPDZ (SEQ ID NO: 17); Peptide-65: +FKGQGCPSTHVLLTZ (SEQ ID NO: 18); Peptide-70: +CPSTHVLLTHTISRZ (SEQ ID NO: 19); Peptide-72: +STHVLLTHTISRIAZ (SEQ ID NO: 20); Peptide-77: +LTHTISRIAVSYQTZ (SEQ ID NO: 21); Peptide-94: +LLSAIKSPCQRETPZ (SEQ ID NO: 22); Peptide-95: +LSAIKSPCQRETPEZ (SEQ ID NO: 23); Peptide-99: +KSPCQRETPEGAEAZ (SEQ ID NO: 24); Peptide-126: +QLEKGDRLSAEINRZ (SEQ ID NO: 25); Peptide-129: +KGDRLSAEINRPDYZ (SEQ ID NO: 26). The y-axis is in arbitrary units.
FIG. 14: Result of the loop-loop 15-mer Matrix-scan with mAb 210 (10 ug/m) with details of squares 65 and 127. Combination of loop-peptide 65 with loop-peptides 94, 95, combinations of loop-peptide 65 with 126-127, combinations of loop-peptide 127 with loop-peptides 65-77 and combinations of loop-peptide 127 with loop-peptides 94-96 are labeled. The y-axis is in arbitrary units.
The monoclonal antibody mAb-210 raised against hTNF was tested on linear and loop peptides (mAb-210 was bought from R&D Systems, MAB210, clone 1825.12, through ITK Diagnostics Uithoorn, The Netherlands). Firstly, it was tested in Pepscan on all overlapping linear 12-mers covering hTNF. […] Secondly, it was tested in Pepscan matrix-scan on double 15-mer loop-loop peptides (as described in FIGS. 3 and 4 and explained through FIGS. 11-12). Two loop-regions were labeled: peptide sequence GQGCPSTHVLLT (SEQ ID NO: 65) (squares 65 to 67) and SAIKSPCQRE (SEQ ID NO: 28) (squares 92 to 96) (FIGS. 13, 14). In addition in various squares loop peptide spots were identified corresponding to sequence GQGCPSTHVLLT (SEQ ID NO: 65) (spots 65-67); SAIKSPCQRE (SEQ ID NO: 28) (spots 92-96) and KGDRLSAEINR (SEQ ID NO: 29) (spots 126-129) (FIG. 14). These three regions, illustrated in FIG. 15 on the three-dimensional model of hTNF, are located on one side of the hTNF molecule and form one large discontinuous epitope region.

Regarding “+CPSTHVLLTHTISRZ ({code +}-CPSTHVLLTHTISRC(nBu)) [Peptide-70, 15-mer hTNF loop-peptide]”, the “labeling of spots (first peptide coupled next to second loop peptide)” value (“labeling of spots” below) is “Identified”.

For “+EKGDRLSAEINRPDZ ({code +}-EKGDRLSAEINRPDX; not fully specified (residue 15); printed as +EKGDRLSAEINRPDZ; also: N- and C-terminal linker/cyclisation residues) [Sq-128, 15-mer hTNF loop-peptide]”, the “labeling of squares (firstly coupled loop-peptides)” value (“labeling of squares” below) was “Identified”. “+FKGQGCPSTHVLLTZ ({code +}-FKGQGCPSTHVLLTC(nBu)) [Peptide-65, 15-mer hTNF loop-peptide]”: the “labeling of spots” value is recorded as “Identified” and the “labeling of squares” value is reported as “Identified”.

For “+GQGCPSTHVLLTHTZ ({code +}-GQGCPSTHVLLTHTX; not fully specified (residue 15); printed as +GQGCPSTHVLLTHTZ; also: N- and C-terminal linker/cyclisation residues) [Sq-67, 15-mer hTNF loop-peptide]”, the “labeling of squares” value is listed as “clearly labeled”. Regarding “+KGDRLSAEINRPDYZ ({code +}-KGDRLSAEINRPDYC(nBu)) [Peptide-129, 15-mer hTNF loop-peptide]”, the “labeling of spots” value was “Identified”. For “+KGQGCPSTHVLLTHZ ({code +}-KGQGCPSTHVLLTHX; not fully specified (residue 15); printed as +KGQGCPSTHVLLTHZ; also: N- and C-terminal linker/cyclisation residues) [Sq-66, 15-mer hTNF loop-peptide]”, the “labeling of squares” value is “clearly labeled”. Consider “+KSPCQRETPEGAEAZ ({code +}-KSPCQRETPEGAEAX; not fully specified (residue 15); printed as +KSPCQRETPEGAEAZ; also: N- and C-terminal linker/cyclisation residues) [Peptide-99, 15-mer hTNF loop-peptide]”, for which the “labeling of spots” value is “Identified”. With “+LEKGDRLSAEINRPZ ({code +}-LEKGDRLSAEINRPX; not fully specified (residue 15); printed as +LEKGDRLSAEINRPZ; also: N- and C-terminal linker/cyclisation residues) [Sq-127, 15-mer hTNF loop-peptide]”, the “labeling of squares” value is on record as “Identified”. Take “+LLSAIKSPCQRETPZ ({code +}-LLSAIKSPCQRETPC(nBu)) [Peptide-94, 15-mer hTNF loop-peptide]”: the “labeling of spots” value was “Identified” and the “labeling of squares” value is on record as “Identified”.

As to “+LSAIKSPCQRETPEZ ({code +}-LSAIKSPCQRETPEC(nBu)) [Peptide-95, 15-mer hTNF loop-peptide]”, the “labeling of spots” value is on record as “Identified” and the “labeling of squares” value is recorded as “Identified”.

With “+LTHTISRIAVSYQTZ ({code +}-LTHTISRIAVSYQTX; not fully specified (residue 15); printed as +LTHTISRIAVSYQTZ; also: N- and C-terminal linker/cyclisation residues) [Peptide-77, 15-mer hTNF loop-peptide]”, the “labeling of spots” value is “Identified”.

Take “+QLEKGDRLSAEINRZ ({code +}-QLEKGDRLSAEINRC(nBu)) [Peptide-126, 15-mer hTNF loop-peptide]”: the “labeling of spots” value is reported as “Identified”. The same measure, in the same setting: the same measure for “+STHVLLTHTISRIAZ ({code +}-STHVLLTHTISRIAC(nBu)) [Peptide-72, 15-mer hTNF loop-peptide]”: “Identified”.

For the substance “+SYQTKVNLLSAIKSZ ({code +}-SYQTKVNLLSAIKSX; not fully specified (residue 15); printed as +SYQTKVNLLSAIKSZ; also: N- and C-terminal linker/cyclisation residues) [Sq-87, 15-mer hTNF loop-peptide]”, the “labeling of squares” value is on record as “Identified”.

For “+YQTKVNLLSAIKSPZ ({code +}-YQTKVNLLSAIKSPX; not fully specified (residue 15); printed as +YQTKVNLLSAIKSPZ; also: N- and C-terminal linker/cyclisation residues) [Sq-88, 15-mer hTNF loop-peptide]”, the “labeling of squares” value is given as “Identified”. With GQGCPSTHVLLT (Human), the “labeling of spots” value is “identified” and the “labeling of squares” value is listed as “labeled”. On to GQGCPSTHVLLTHTIS (Human), for which the “labeling of spots” value was “identified”. Take KGDRLSAEINR (Human): the “labeling of spots” value is recorded as “identified”. SAIKSPCQRE (Human): the “labeling of spots” value is reported as “identified” and the “labeling of squares” value is “labeled”.
